From paper PMC12521615, “Accurate affinity models for SH2 domains from peptide binding assays and free‐energy regression” (Protein Science : A Publication of the Protein Society, 2025) come the findings set out here.

Molecules are shown by their SMILES. pKd: −log10 of the molar value. Non-standard residues stand in square brackets, D forms with d. Residues, ends and D or L forms follow the SMILES beside them. pY = N[C@@H](Cc1ccc(OP(=O)(O)O)cc1)C(=O)O

In general, pKd refers to the negative decadic logarithm of the Kd, by convention in mol/L.

In experiment [1] the target is T1, c-Src SH2 domain (Homo sapiens, UniProt P12931).
T1 construct: the SH2 domain from c‐Src kinase; His6-SUMO (N, cleaved yes); host or cells: Escherichia coli C43(DE3) with BirA helper plasmid
T1 sequence (P12931 151-248 limits assumed): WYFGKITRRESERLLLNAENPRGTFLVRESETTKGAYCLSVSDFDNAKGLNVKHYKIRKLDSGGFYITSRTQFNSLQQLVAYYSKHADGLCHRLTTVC
Description: competitive fluorescence polarization, c-Src SH2 domain. Type of experiment: binding. Particulars: Table S3, unpaired validation; competition fluorescence polarization; probe FITC-Ahx-GDG-pY-EEISPLLL-NH2 30 nM; [SH2] 123-126 nM; mean. (In general: Fluorescence polarisation rises when a labelled molecule tumbles more slowly, as on binding a larger partner.)
Description: Measured binding constants (K D) from competition mode fluorescence polarization experiments were obtained using the purified SH2 domains used for the selection and chosen sets of peptides with a phosphorylated tyrosine exactly as described previously (Li et al., [2023]). […] Before performing the competition mode fluorescence polarization measurement, the K D of the probes for the respective SH2 domains was first measured in a direct mode of fluorescence polarization. […] Using the validation data for the Fyn SH2 domain, the range of predicted relative binding affinities that corresponds to the range between 1 nM and 100 μM, which is the dynamic range of reliable measurement of absolute binding affinities using our competitive fluorescence polarization setup, was defined and used to further filter the set of candidate phosphopeptides. A subset that evenly covers the chosen range of predicted relative affinities was finally picked for the validation measurements of the Lyn SH2 domain.

Experiment [2] addresses T2, Lyn SH2 domain (Homo sapiens, UniProt P07948).
T2 construct: The human SH2 domains from Fyn (142–248), Lyn (121–228); His6-SUMO (N, cleaved yes); host or cells: Escherichia coli C43(DE3) with BirA helper plasmid
Description: competitive fluorescence polarization, Lyn SH2 domain. Type of experiment: binding. The following applies: Table S3, unpaired validation; competition fluorescence polarization; probe FITC-Ahx-GDG-pY-EEISPLLL-NH2 30 nM; [SH2] 106 nM; mean. From the text: First, we generated bacterial display datasets and affinity models for three additional SH2 domains from Src‐family kinases Lyn, Blk, and Yes (Figure 5a). For validation of the affinity model for Lyn, we selected a subset of phosphopeptides that were likely to fall within the dynamic range of the competitive fluorescence polarization assay (see “Methods” for details). […] We measured binding affinities to the corresponding phosphopeptides by fluorescence polarization.
The human SH2 domains from Fyn (142–248), Lyn (121–228), Blk (116–222), and Yes (150–257) kinases were PCR‐amplified from plasmids encoding the full‐length proteins and cloned using the NEBuilder® HiFi DNA Assembly Master Mix (NEB) in a pET plasmid backbone that was PCR‐amplified with the primers pETXbaI_for and pETXhoI_rev (these and all other primers are defined in Table S7) from the pET‐His6‐SUMO‐Grb2(SH2), as reported before (Li et al., [2023]), thus adding an N‐terminal His6‐SUMO tag and a C‐terminal AviTag® for biotinylation. The SH2 plasmids are available via Addgene: pET28‐His6‐SUMO‐Fyn‐SH2‐AviTag (214202), pET28‐His6‐SUMO‐Blk‐SH2‐AviTag (214204), pET28‐His6‐SUMO‐Lyn‐SH2‐AviTag (214207), pET28‐His6‐SUMO‐Yes‐SH2‐AviTag (214208), and pET28‐His6‐SUMO‐cSrc‐SH2‐AviTag (214230). For expression and parallel biotinylating of the SH2 domain product, Escherichia coli C43(DE3) cells carrying a BirA encoding helper plasmid were transformed with the respective SH2 domain expression construct and plated to grow overnight at 37°C on a streptomycin and kanamycin (100 μg/mL both) LB‐agar plate. The colonies were collected in 10 mL of TB medium and used to inoculate 1 L of TB medium and grown at 37°C and 215 rpm. Upon reaching an OD600 of 0.5, the expression of the SH2 domains was induced by adding IPTG up to 0.5 mM and biotin up to 250 μM, and the expressing culture was incubated at 18°C for 16–18 h. After removing the medium through centrifugation, the cell pellets were snap‐frozen in liquid N2 and stored at −80°C until purification. To purify the biotinylated SH2 domains, the cell pellets were resuspended in lysis buffer (50 mM Tris, pH 7.5, 300 mM NaCl, 20 mM imidazole, 10% glycerol), supplementing them with 2 mM β‐mercaptoethanol and 1× protease inhibitor cocktail before lysis by sonication (Fisherbrand Sonic Dismembrator). The soluble fraction separated after centrifugation at 33,000 g was run on a HisTrap HP column (Cytiva), then washed with 10 CV of the lysis buffer followed by 10 CV of wash buffer (50 mM Tris, pH 7.5, 50 mM NaCl, 10 mM imidazole, 10% glycerol). Next, the protein was eluted with elution buffer (50 mM Tris, pH 7.5, 50 mM NaCl, 250 mM imidazole, 10% glycerol) directly onto a 5 mL HiTrap Q HP anion exchange column (Cytiva). The biotinylated SH2 domain was then eluted from the anion exchange column with an NaCl gradient (50 mM Tris, pH 7.5, 0.05–1 M NaCl, 1 mM TCEP‐HCl), and the His6‐SUMO tag was cleaved using 0.05 mg/mL Ulp1 protease. The biotinylated SH2 domain was then collected in a flowthrough after running the cleavage reaction over a HisTrap HP column. Finally, the biotinylated SH2 domain in the flowthrough was run on a HiLoad 16/600 Superdex 75 pg size exclusion column (Cytiva) in storage buffer (20 mM HEPES, pH 7.5, 150 mM NaCl, 10% glycerol).

For experiment [3], the target named is Grb2 SH2 domain (Homo sapiens, UniProt P62993). Kind of experiment: biochemical. From the text:
Measured binding constants (K D) from competition mode fluorescence polarization experiments were obtained using the purified SH2 domains used for the selection and chosen sets of peptides with a phosphorylated tyrosine exactly as described previously (Li et al., [2023]). […] (c‐Src SH2 consensus) was used as the probe, and for the Grb2 SH2 domain, the fluorescently labeled peptide FITC‐Ahx‐FDDPS(pY)VNVQN (Ahx = 6‐aminohexanoic acid) from the Y177 phospho‐tyrosine site of BCR. Before performing the competition mode fluorescence polarization measurement, the K D of the probes for the respective SH2 domains was first measured in a direct mode of fluorescence polarization. […] For the set of peptides where single point mutations were compared, phosphopeptides reported in the PhosphoSitePlus database (Hornbeck et al., [2015]) and previously shown to bind to the c‐Src SH2 domain (Li et al., [2023]) were chosen alongside their respective single point mutants. To choose phosphopeptides for validation of the Lyn SH2 domain, we started from all verified phosphopeptides found in PhosphoSitePlus, filtered based on their co‐expression with the Lyn kinase using the STRING database. Using the validation data for the Fyn SH2 domain, the range of predicted relative binding affinities that corresponds to the range between 1 nM and 100 μM, which is the dynamic range of reliable measurement of absolute binding affinities using our competitive fluorescence polarization setup, was defined and used to further filter the set of candidate phosphopeptides. A subset that evenly covers the chosen range of predicted relative affinities was finally picked for the validation measurements of the Lyn SH2 domain. For the c‐Src, Yes, and Blk SH2 domains, a combination of the previously chosen peptides was used, after verifying that their predicted relative affinities for the given SH2 domain fell within the same measurable range. All peptides containing phosphorylated tyrosine, both fluorescently labeled and non‐labeled, were produced by SynPeptide (China).

Sequence of Grb2 SH2 domain (P62993 60-152 limits assumed): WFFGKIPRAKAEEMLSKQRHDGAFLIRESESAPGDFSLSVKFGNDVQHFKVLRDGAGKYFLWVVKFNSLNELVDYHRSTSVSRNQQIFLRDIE
T2 sequence (P07948 121-228): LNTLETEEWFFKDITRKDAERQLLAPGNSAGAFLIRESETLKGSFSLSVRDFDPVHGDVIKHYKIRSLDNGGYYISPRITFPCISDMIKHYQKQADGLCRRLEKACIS

On to `CC[C@H](C)[C@H](NC(=O)[C@H](CC(=O)O)NC(=O)[C@H](CC(=O)O)NC(=O)[C@H](Cc1ccc(OP(=O)(O)O)cc1)NC(=O)[C@@H](NC(=O)[C@H](CCC(=O)O)NC(=O)CNC(=O)[C@H](CC(=O)O)NC(=O)[C@H](CC(N)=O)NC(=O)[C@H](CCC(N)=O)NC(C)=O)[C@@H](C)CC)C(=O)N[C@@H](C)C(=O)N[C@@H](CC(=O)O)C(=O)NCC(N)=O` [SLAP-130 pY771] (Ac-QNDGEI[pY]DDIADG-NH2), for which the results for the pKd in experiment [1] and in experiment [2] were 7.03 and 7.01, respectively.

As to `CC(=O)N[C@@H](CCC(N)=O)C(=O)N[C@@H](CCCCN)C(=O)N[C@@H](CCC(=O)O)C(=O)N[C@@H](C)C(=O)N[C@@H](Cc1c[nH]cn1)C(=O)N[C@@H](Cc1c[nH]cn1)C(=O)N[C@@H](Cc1ccc(OP(=O)(O)O)cc1)C(=O)N[C@H](C(=O)N[C@@H](CC(N)=O)C(=O)N[C@@H](Cc1c[nH]c2ccccc12)C(=O)N[C@@H](CCCNC(=N)N)C(=O)N[C@H](C(=O)NCC(N)=O)[C@@H](C)O)C(C)C` [Syn-G2-1] (Ac-QKEAHH[pY]VNWRTG-NH2), the values for the pKd in experiment [3] and in experiment [1] were 7.50 and 5.02, respectively.

On to `CC[C@H](C)[C@H](NC(=O)[C@H](CC(N)=O)NC(=O)[C@H](Cc1c[nH]cn1)NC(=O)[C@H](CCC(N)=O)NC(C)=O)C(=O)N[C@@H](Cc1c[nH]cn1)C(=O)N[C@@H](CO)C(=O)N[C@@H](Cc1ccc(OP(=O)(O)O)cc1)C(=O)N[C@H](C(=O)N[C@@H](CC(N)=O)C(=O)N[C@H](C(=O)N1CCC[C@H]1C(=O)N1CCC[C@H]1C(=O)NCC(N)=O)[C@@H](C)CC)[C@@H](C)CC` [Syn-G2-2] (Ac-QHNIHS[pY]INIPPG-NH2), for which the negative logarithm of the Kd (pKd) in experiment [3] is 8.40.

Consider `CC[C@H](C)[C@H](NC(=O)[C@H](CC(N)=O)NC(=O)[C@H](Cc1c[nH]cn1)NC(=O)[C@H](Cc1ccc(OP(=O)(O)O)cc1)NC(=O)[C@H](CCCNC(=N)N)NC(=O)[C@H](CCC(N)=O)NC(=O)[C@H](Cc1c[nH]cn1)NC(=O)CNC(=O)[C@H](CC(C)C)NC(=O)[C@H](CCC(N)=O)NC(C)=O)C(=O)N[C@H](C(=O)N1CCC[C@H]1C(=O)NCC(N)=O)[C@@H](C)O` [Syn-G2-5] (Ac-QLGHQR[pY]HNITPG-NH2), for which the pKd in experiment [3] is 6.31.

For `CC(=O)N[C@@H](CCC(N)=O)C(=O)N[C@@H](Cc1c[nH]cn1)C(=O)N[C@@H](CCCNC(=N)N)C(=O)N[C@@H](CC(C)C)C(=O)N[C@@H](CC(N)=O)C(=O)N[C@@H](CC(N)=O)C(=O)N[C@@H](Cc1ccc(OP(=O)(O)O)cc1)C(=O)N[C@@H](CCC(=O)O)C(=O)N[C@@H](CC(N)=O)C(=O)N[C@@H](CC(N)=O)C(=O)N[C@@H](CCCNC(=N)N)C(=O)N[C@@H](CC(C)C)C(=O)NCC(N)=O` [Syn-G2-6] (Ac-QHRLNN[pY]ENNRLG-NH2), the pKd in experiment [3] is 5.65.

Regarding `CC[C@H](C)[C@H](NC(=O)[C@H](CCC(N)=O)NC(C)=O)C(=O)N[C@@H](CCC(=O)O)C(=O)N[C@H](C(=O)NCC(=O)N[C@H](C(=O)N[C@@H](Cc1ccc(OP(=O)(O)O)cc1)C(=O)N[C@@H](CCC(N)=O)C(=O)N[C@@H](CC(N)=O)C(=O)N1CCC[C@H]1C(=O)N[C@@H](Cc1c[nH]cn1)C(=O)N[C@@H](CC(N)=O)C(=O)NCC(N)=O)[C@@H](C)O)C(C)C` [Syn-G2-7] (Ac-QIEVGT[pY]QNPHNG-NH2), in experiment [3], the pKd was 5.49.

For the molecule `CC(=O)N[C@@H](CCC(N)=O)C(=O)N[C@@H](CCC(=O)O)C(=O)N[C@@H](Cc1c[nH]c2ccccc12)C(=O)N[C@@H](CCCNC(=N)N)C(=O)N[C@@H](CO)C(=O)N[C@@H](CCC(N)=O)C(=O)N[C@@H](Cc1ccc(OP(=O)(O)O)cc1)C(=O)N[C@@H](CCC(=O)O)C(=O)N[C@@H](C)C(=O)N[C@@H](CC(C)C)C(=O)N[C@@H](CCCCN)C(=O)N[C@@H](CCC(=O)O)C(=O)NCC(N)=O` [TRAF3IP3 pY322] (Ac-QEWRSQ[pY]EALKEG-NH2), the figures for the pKd in experiment [1] and in experiment [2] were 5.19 and 5.40, respectively.
